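Cells were grown in 96-well plates and exposed to each compound for 48 hours at five concentrations; endpoints were interpolated linearly between bracketing concentrations, or set to the highest concentration if not reached. The concentration for 50% growth inhibition is given as GI50.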 The source made the active and inactive calls. Cut-off read from the data, not from the text of the source: active = GI50 up to about 1.1 µM and inactive = higher.
Columns and labels:
Assay in all cases: inhibition of tumour cell growth, NCI panel, 48 h
[1] = test system: MDA-MB-435
[2] = test system: SNB-75
[3] = test system: NCI-H226
[4] = test system: NCI-H460
[5] = test system: NCI-H23
[6] = test system: EKVX
[7] = test system: ACHN
[8] = test system: SF-268
[9] = test system: KM12
[10] = test system: UO-31
[11] = test system: SN12C
[12] = test system: CAKI-1
[13] = test system: SK-MEL-2
[14] = test system: 786-0
[15] = test system: MOLT-4
[16] = test system: MDA-MB-231
[17] = test system: HCC 2998
[18] = test system: K562
[19] = test system: HL-60

Measured: GI50

COc1ccc(-c2nc(O)c3ccccc3n2)c(OC)c1
inactive: [1] > 100 µM | [2] > 100 µM | [3] > 100 µM | [4] > 100 µM | [5] > 100 µM | [6] > 100 µM | [7] > 100 µM | [8] > 100 µM | [9] > 100 µM | [10] > 100 µM | [11] > 100 µM | [12] > 100 µM | [13] > 100 µM | [14] > 100 µM | [15] > 100 µM | [16] > 100 µM | [17] > 100 µM

Cc1n[nH]c(=O)n1Nc1ccccc1
inactive: [1] > 100 µM | [2] > 100 µM | [18] > 100 µM | [3] > 100 µM | [4] > 100 µM | [19] > 100 µM | [5] > 100 µM | [6] > 100 µM | [7] > 100 µM | [8] > 100 µM | [9] > 100 µM | [10] > 100 µM | [11] > 100 µM | [12] > 100 µM | [14] > 100 µM | [15] > 100 µM | [16] > 100 µM | [17] > 100 µM

O=[N+]([O-])c1ccc2[nH]ncc2c1Cl
inactive: [1] 36.1 µM | [2] 35.9 µM | [18] 18.3 µM | [3] 8.69 µM | [4] 33.1 µM | [19] 29.8 µM | [6] 20.6 µM | [7] 24.7 µM | [9] 25.3 µM | [11] 31.7 µM | [12] > 10 µM | [13] 20.2 µM | [14] 36.3 µM | [15] 22.8 µM | [17] 29.6 µM
active: [16] 0.0108 µM

COc1nc2sc3c(c2c(=O)n1CCCSSCCCn1c(OC)nc2sc4c(c2c1=O)CCCC4)CCCC3
inactive: [1] > 100 µM | [2] > 100 µM | [18] > 100 µM | [3] > 100 µM | [5] > 100 µM | [6] > 100 µM | [7] > 100 µM | [9] > 100 µM | [10] > 100 µM | [11] > 100 µM | [12] > 100 µM | [13] > 100 µM | [14] > 100 µM | [15] > 100 µM | [16] > 100 µM | [17] > 100 µM

O=P1(O)c2ccccc2CCc2ccccc21
inactive: [1] > 100 µM | [2] > 100 µM | [18] > 100 µM | [3] > 100 µM | [5] > 100 µM | [6] > 100 µM | [8] > 100 µM | [9] > 100 µM | [10] > 100 µM | [11] > 100 µM | [12] > 100 µM | [13] > 100 µM | [14] > 100 µM | [15] > 100 µM | [16] > 100 µM | [17] > 100 µM

CN/C(=N\N)NS(=O)(=O)c1cc(C)c(Cl)cc1S
inactive: [1] 43.5 µM | [2] > 100 µM | [18] 49.2 µM | [3] > 100 µM | [19] 41.5 µM | [6] 81.7 µM | [8] > 100 µM | [9] 76 µM | [10] 25.1 µM | [11] > 100 µM | [12] 45.8 µM | [13] 69.2 µM | [14] 27.3 µM | [15] > 10 µM | [16] > 100 µM | [17] 87.7 µM

COc1ccc2c(c1)CCc1[nH]c3ccccc3c1CCCC2
inactive: [1] > 10 µM | [2] > 10 µM | [18] > 10 µM | [19] > 10 µM | [5] > 10 µM | [7] > 10 µM | [8] > 10 µM | [9] > 10 µM | [11] > 10 µM | [12] > 10 µM | [14] > 10 µM | [15] > 10 µM | [16] > 10 µM | [17] > 10 µM

CC(=O)O[C@H]1[C@H](OC(C)=O)[C@@H](CN=[N+]=[N-])OCO[C@@H]1CN=[N+]=[N-]
inactive: [1] > 100 µM | [2] > 100 µM | [18] > 100 µM | [3] > 100 µM | [4] > 100 µM | [19] > 100 µM | [5] > 100 µM | [6] > 100 µM | [7] > 100 µM | [8] > 100 µM | [9] > 100 µM | [11] > 100 µM | [13] > 100 µM | [14] > 100 µM | [15] > 100 µM | [16] > 100 µM | [17] > 100 µM
